In article PMC10522591, “Natural product P57 induces hypothermia through targeting pyridoxal kinase” (Nature Communications, 2023):
Positions count from the first letter of the chain named. pKd: −log10 of the molar value.

Key:
pyridoxal kinase (PDXK) [1] = molecular target: T1, pyridoxal kinase (PDXK) (Homo sapiens, UniProt O00764); experiment: initial velocity kinetics, ATP varied at fixed PL; assay type: biochemical
T1 construct: wild-type full-length human PDXK, N-terminal His tag
T1 sequence (O00764 1-312): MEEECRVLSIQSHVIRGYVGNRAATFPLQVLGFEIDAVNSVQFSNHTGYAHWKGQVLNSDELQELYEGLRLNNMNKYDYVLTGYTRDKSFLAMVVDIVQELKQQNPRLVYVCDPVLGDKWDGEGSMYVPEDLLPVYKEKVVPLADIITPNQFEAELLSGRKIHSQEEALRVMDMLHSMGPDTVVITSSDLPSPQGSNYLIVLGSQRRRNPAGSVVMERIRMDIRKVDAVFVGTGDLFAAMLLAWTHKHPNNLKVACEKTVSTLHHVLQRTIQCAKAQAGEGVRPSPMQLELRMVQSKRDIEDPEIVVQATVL

pyridoxal kinase (PDXK) [2] = molecular target: T2, pyridoxal kinase (PDXK) (Mus musculus, UniProt Q8K183); experiment: competition of P57-Bio ([…]) affinity pull-down by P57 ([…]), Western blot; assay type: cell-based
T2 construct: endogenous, mouse brain lysate
T2 sequence (Q8K183 1-312): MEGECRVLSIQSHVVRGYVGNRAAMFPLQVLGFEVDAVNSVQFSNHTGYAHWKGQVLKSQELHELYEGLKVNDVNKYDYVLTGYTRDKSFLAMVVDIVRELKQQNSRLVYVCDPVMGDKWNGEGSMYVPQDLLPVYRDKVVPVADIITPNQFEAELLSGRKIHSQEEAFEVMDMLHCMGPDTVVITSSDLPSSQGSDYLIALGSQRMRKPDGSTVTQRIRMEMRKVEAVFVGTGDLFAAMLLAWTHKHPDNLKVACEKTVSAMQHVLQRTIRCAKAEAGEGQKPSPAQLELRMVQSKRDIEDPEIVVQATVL

pyridoxal kinase (PDXK) [3] = molecular target: T3, pyridoxal kinase (PDXK) (Homo sapiens, UniProt O00764, D235A); experiment: inhibition of purified mutant enzyme (Fig. S5g); assay type: biochemical
T3 construct: full-length human PDXK D235A, N-terminal His tag
T3 sequence (O00764 1-312 D235A): T1 sequence (O00764 1-312) with D235A

pyridoxal kinase (PDXK) [4] = molecular target: T1, pyridoxal kinase (PDXK); experiment: SPR (Biacore T200); also MST Kd =[…], and enzyme inhibition with EC50 […]; assay type: binding

SMILES	initial velocity kinetics, ATP varied at fixed PL (pyridoxal kinase (PDXK) [1])	competition of P57-Bio (2.0 μM) affinity pull-down by P57 (20.0 μM), Western blo (pyridoxal kinase (PDXK) [2])	inhibition of purified mutant enzyme (Fig. S5g) (pyridoxal kinase (PDXK) [3])	pKd (pyridoxal kinase (PDXK) [4])
Nc1ncnc2c1ncn2[C@@H]1O[C@H](COP(=O)(O)OP(=O)(O)OP(=O)(O)O)[C@@H](O)[C@H]1O [ATP]	PL concentration was fixed and the concentrations of ATP were varied showed that both Km and Vmax values decreased	–	–	–
C/C=C(\C)C(=O)O[C@@H]1C[C@H]2[C@@H](CC=C3C[C@@H](O[C@H]4C[C@H](OC)[C@H](O[C@H]5C[C@H](OC)[C@H](O[C@@H]6O[C@H](C)[C@@H](O)[C@H](OC)[C@H]6O)[C@@H](C)O5)[C@@H](C)O4)CC[C@@]32C)[C@@]2(O)CC[C@H](C(C)=O)[C@@]12C [P57]	–	immunoblotting showed GSTP1 and PDXK, but not neuromodulin, were sensitive to competition by excess P57	the D235A mutation can reduce the binding stability to a certain extent, and partly reducing the inhibitory activity	5.46
